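Method: 48-hour compound exposure of cells in 96-well plates, five concentrations, linear interpolation of endpoints. GI50: concentration for 50% inhibition of growth. TGI marks complete inhibition of growth.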 Some results are limits rather than exact numbers.

Among the data in PubChem BioAssay (NCI) are TGI and GI50 values, retold here.

What all share (test): NCI anticancer screen, dose series, 48 h
The subject of test [1] is CCRF-CEM leukemia.
For test [2], the system named is SK-MEL-5 melanoma.
Test [3] has as its system CAKI-1 renal.
Test [4] has as its system SN12C renal.
Test [5] relates to OVCAR-4 ovarian.
In test [6] the test system is PC-3 prostate.
Test [7] concerns HS 578T breast.
Test [8] relates to SW-620 colon.
Test [9] concerns KM12 colon.
Test [10] deals with OVCAR-8 ovarian.

`O=C(CCl)Nc1cc(Cl)c(Cl)cc1Cl`: the TGI in test [1] was found to be 5.99 µM; in test [2], 3.17 µM; in [3] it was 4.88 µM; in test [4], 2.96 µM; in test [5], 4.06 µM; in [6], 3.29 µM. In addition, the TGI in test [7] was found to be 8.56 µM; in test [8], 5.72 µM; in test [9], 0.83 µM; in test [10], 3.1 µM.
Regarding `CC[C@]1(O)CC2CN(CCc3c([nH]c4ccccc34)[C@@](C(=O)OC)(c3cc4c(cc3OC)N(C=O)[C@H]3[C@@](O)(C(=O)OC)[C@H](OC(C)=O)[C@]5(CC)C=CCN6CC[C@]43[C@@H]65)C2)C1` (some centres undefined), the GI50 in test [1] was below 0.005 µM; in test [2], below 0.005 µM; in test [3], 0.232 µM; in test [4], below 0.005 µM; in test [5] it was 0.00653 µM; in test [6], 0.0059 µM. Also, the GI50 was 0.0486 µM in test [7], below 0.005 µM in test [8], below 0.005 µM in [9] and 0.00828 µM in [10]. Further, the TGI in test [2] is 0.059 µM; in [3], above 50 µM; in test [4], above 50 µM; in [5], above 50 µM; in test [6], above 50 µM; in [7] it was above 46.1 µM. In addition, the TGI in test [8], in [9] and in test [10] was above 50 µM throughout.
In the case of `C(=Nc1cnc2ccccc2c1)c1ccc2ccccc2n1`, the TGI in test [1], in [2], in test [3], in test [4], in test [5] and in test [6] was above 100 µM throughout. In addition, the TGI in [7], in test [8], in [9] and in [10] was above 100 µM in each case.
Consider `C[C@@H](NC(=O)c1ncnc(N)c1Cl)c1ncc(C(=O)Nc2cc(C(F)(F)F)c(Cl)cn2)s1`, for which the GI50 is 25.4 µM in test [1]; 8.91 µM in [2]; 25.4 µM in test [3]; 19.9 µM in test [4]; 20.7 µM in test [5]; 25.3 µM in [6]. Also, the GI50 in test [7] is 23.4 µM; in test [8], 11 µM; in [9] it was 21.3 µM; in test [10] it was 15.1 µM. The TGI in [1] is above 100 µM; in test [2], 24.1 µM; in test [3] it was 71.6 µM; in [4] it was above 93.7 µM; in [5], 73.3 µM; in [6], above 76.6 µM. Besides, the TGI in test [7] was 98.9 µM; in test [8], above 75.5 µM; in [9], above 84.6 µM; in test [10], 40.8 µM.
Turning to `C/C(=N/O)c1ccc2c(c1)/C(=N/O)c1ccccc1-2`, the GI50 in [1] was 25.4 µM; in test [2] it was 17 µM; in test [3], 20.3 µM; in [4] it was 19.8 µM; in test [5] it was 15.1 µM; in test [6] it was 24.2 µM. The GI50 is 29.4 µM in [7], 19.3 µM in test [8], 18.1 µM in [9] and 21.4 µM in [10]. Moreover, the TGI in test [1] came out at 62.6 µM; in [2], 31.2 µM; in [3] it was 44.8 µM; in test [4] it was 44.5 µM; in test [5], 45.4 µM; in test [6], 57.4 µM. Also, the TGI stood at 99.2 µM in test [7], 44.2 µM in test [8], 35.4 µM in [9] and 46.4 µM in test [10].
As for `O=C1c2ccccc2C(=O)c2c1ccc1c(=O)n(-c3ccccc3C(F)(F)F)nnc21`, the GI50 in test [1] is 2.03 µM; in [2] it was 1.67 µM; in test [3] it was 2.77 µM; in [4], 2.23 µM; in test [5], 1 µM; in test [6], 2.2 µM. Further, the GI50 was 3.04 µM in test [7], 3.43 µM in [8], 1.88 µM in [9] and 2.49 µM in test [10]. Moreover, the TGI in [1] is above 100 µM; in [2], 3.05 µM; in test [3], above 100 µM; in test [4], 28.9 µM; in test [5], 2.21 µM; in test [6] it was above 100 µM. In addition, the TGI in [7] was above 100 µM; in test [8], above 100 µM; in [9], 5.5 µM; in [10] it was above 100 µM.
In the case of `O=C(/C=C/C(Cl)(Cl)Cl)Nc1ccc(Cl)cc1`, the TGI was found to be 3.97 µM in test [1]; 23.5 µM in test [2]; 2.02 µM in test [3]; 25.8 µM in test [4]; 4.02 µM in test [5]; 26.5 µM in test [6]. Also, the TGI in test [7] is 54.3 µM; in test [8], 14 µM; in test [9], 6.07 µM; in test [10], above 77.6 µM.
Consider `CCN(CC)CCN1C(=O)C2C3C(=O)CC(C)(CC3C)C2C1=O` (centres undefined), for which the GI50 in test [1], in test [2], in [3], in test [4], in test [5] and in test [6] was above 100 µM in each case. For the same compound, the GI50 in test [7], in [8], in test [9] and in test [10] was above 100 µM in each case. The TGI in test [1], in test [2], in test [3], in test [4], in test [5] and in [6] was above 100 µM throughout. Also, the TGI in test [7], in [8], in [9] and in test [10] was above 100 µM throughout.
As to `CN(C)Cc1ccc(C(C)(C)C)cc1-c1cc(C(C)(C)C)ccc1CN(C)C`, the TGI in test [1], in [2], in [3], in [4], in test [5] and in test [6] was above 100 µM throughout. For the same compound, the TGI in test [7], in test [8], in test [9] and in test [10] was above 100 µM throughout.
